Patent US9388123B2, “LSD1-selective inhibitor having lysine structure” (KYOTO UNIVERSITY, priority 2012, dated 2016)
Counter-ions that a name gives are not always drawn.

Legend:
HeLa cells = assay: Cancer cell growth inhibition evaluation (MTT assay); type: cell-based; settings: Homo sapiens; 48 hours with compound, MTT; read-out: GI50 (μM) HeLa
Description: (§1) Evaluation was performed by measuring the inhibitory activities of a compound against the growth of a human cervical cancer-derived cell line, HeLa cells, and a human neuroblastoma cell line, SH-SY5Y cells. Details thereof are shown below. […] This assay involves, as a principle thereof, measuring an absorbance at the time of color development through a reaction of NADH, which is contained in the mitochondria of viable cells, and MTT to measure the amount of NADH. The assay was performed by the following procedure. […] After the culture, a compound was added. Then, the cells were cultured for an additional 48 hours, and then 5 mg/ml MTT liquid was added at 10 μl per well. The cells were cultured for an additional 3 hours in a CO2 incubator. A solubilization solution (0.04 mol/l hydrochloric acid-isopropanol) was added at 100 μl per well and the mixture was vigorously vortexed. After that, an absorbance at 560 nm was measured with Fusion-aFP (manufactured by PerkinElmer) and the amount of viable cells was determined.

SH-SY5Y cells = assay: as above; type: cell-based; settings: Homo sapiens, MTT, read-out: GI50 (μM) SH-SY5Y
Description: as §1

LSD1 = molecular target: T1, LSD1 (Homo sapiens, UniProt O60341); assay: LSD1 inhibition test (peroxidase-coupled absorbance assay); type: biochemical; settings: 25° C., 30 minutes, histone H3-lysine 4 dimethyl peptide
T1 construct: five histidine residues added to the N-terminus of full-length LSD1 (1-851aa); 5xHis (five histidine residues) (N); made in house; host or cells: Escherichia coli

Question: Which melting point does the source give for CC(C)(C)c1ccc(C(=O)N[C@@H](CCCCNC2CC2c2ccccc2)C(=O)NCc2ccccc2)cc1 (stereo partly drawn) (as salt: hydrochloride) [Example 5, 2-[N-(4-tert-Butylbenzenecarbonyl)]amino-6-(trans-2-phenylcyclopropan-1-amino)-N-benzylhexanamide Hydrochloride] here?
Answer: 101 to 103 °C

Question: With O=C(N[C@@H](CCCCNC1CC1c1ccccc1)C(=O)NCc1ccccc1)c1ccc(Cl)cc1 (stereo partly drawn) (as salt: hydrochloride) [Example 6, 2-[N-(4-Chlorobenzenecarbonyl)]amino-6-(trans-2-phenylcyclopropan-1-amino)-N-benzylhexanamide Hydrochloride] as the compound, how does the melting point read?
Answer: 107 to 109 °C

Question: Which melting point does the source give for O=C(N[C@@H](CCCCNC1CC1c1ccccc1)C(=O)NCc1ccccc1)c1ccc(F)cc1 (stereo partly drawn) (as salt: hydrochloride) [Example 7, 2-[N-(4-Fluorobenzenecarbonyl)]amino-6-(trans-2-phenylcyclopropan-1-amino)-N-benzylhexanamide Hydrochloride] here?
Answer: 90 to 91 °C

Question: With O=C(N[C@@H](CCCCNC1CC1c1ccccc1)C(=O)NCc1ccccc1)c1ccc(-c2ccccc2)cc1 (stereo partly drawn) (as salt: hydrochloride) [Example 8, 2-[N-(4-Phenylbenzenecarbonyl)]amino-6-(trans-2-phenylcyclopropan-1-amino)-N-benzylhexanamide Hydrochloride] as the compound, how does the melting point read?
Answer: 143 to 146 °C

Question: Which melting point does the source give for O=C(N[C@@H](CCCCNC1CC1c1ccccc1)C(=O)NCc1ccccc1)c1ccc(C(F)(F)F)cc1 (stereo partly drawn) (as salt: hydrochloride) [Example 9, 2-[N-(4-Trifluoromethylbenzenecarbonyl)]amino-6-(trans-2-phenylcyclopropan-1-amino)-N-benzylhexanamide Hydrochloride] here?
Answer: 98 to 101 °C

Question: With Cc1ccc(CNC(=O)[C@H](CCCCNC2CC2c2ccccc2)NC(=O)c2ccc(-c3ccccc3)cc2)cc1 (stereo partly drawn) (as salt: hydrochloride) [Example 12, 2-[N-(4-Phenylbenzenecarbonyl)]amino-6-(trans-2-phenylcyclopropan-1-amino)-N-(4-methylbenzyl)hexanamide Hydrochloride] as the compound, how does the melting point read?
Answer: 117 to 118 °C

Question: With O=C(N[C@@H](CCCCNC1CC1c1ccccc1)C(=O)NCc1ccc(F)cc1)c1ccc(-c2ccccc2)cc1 (stereo partly drawn) (as salt: hydrochloride) [Example 13, 2-[N-(4-Phenylbenzenecarbonyl)]amino-6-(trans-2-phenylcyclopropan-1-amino)-N-(4-fluorobenzyl)hexanamide Hydrochloride] as the compound, how does the melting point read?
Answer: 95 to 96 °C

Question: For O=C(N[C@@H](CCCCNC1CC1c1ccccc1)C(=O)NCc1ccc(-c2ccccc2)cc1)c1ccc(-c2ccccc2)cc1 (stereo partly drawn) (as salt: hydrochloride) [Example 14, 2-[N-(4-Phenylbenzenecarbonyl)]amino-6-(trans-2-phenylcyclopropan-1-amino)-N-(4-phenylbenzyl)hexanamide Hydrochloride], which melting point is on record?
Answer: 139 to 140 °C

Question: Which melting point does the source give for Cc1cccc(CNC(=O)[C@H](CCCCNC2CC2c2ccccc2)NC(=O)c2ccc(-c3ccccc3)cc2)c1 (stereo partly drawn) (as salt: hydrochloride) [Example 16, 2-[N-(4-Phenylbenzenecarbonyl)]amino-6-(trans-2-phenylcyclopropan-1-amino)-N-(3-methylbenzyl)hexanamide Hydrochloride] here?
Answer: 101 to 103 °C

Question: For NC1CC1c1ccccc1 (stereo not drawn) [Comp. Ex. 1, trans-2-Phenylcyclopropylamine, reference compound], which GI50 (HeLa cells) is on record?
Answer: > 500 µM

Question: What about the GI50 (SH-SY5Y cells) of the same compound?
Answer: 503 µM

Question: For CC(C)(C)OC(=O)N[C@@H](CCCCNC1CC1c1ccccc1)C(=O)NCc1ccccc1 (stereo partly drawn) [Example 2, 2-(N-tert-Butoxycarbonyl)amino-6-(trans-2-phenylcyclopropan-1-amino)-N-benzylhexanamide], which IC50 (LSD1) is on record?
Answer: 1.2 µM

Question: Which IC50 (LSD1) does the source give for N[C@@H](CCCCNC1CC1c1ccccc1)C(=O)NCc1ccccc1 (stereo partly drawn) [Example 3, 2-Amino-6-(trans-2-phenylcyclopropan-1-amino)-N-benzylhexanamide Dihydrochloride] here?
Answer: 0.06 µM

Question: For Cc1ccc(C(=O)N[C@@H](CCCCNC2CC2c2ccccc2)C(=O)NCc2ccccc2)cc1 (stereo partly drawn) [Example 4, 2-[N-(4-Methylbenzenecarbonyl)]amino-6-(trans-2-phenylcyclopropan-1-amino)-N-benzylhexanamide Trifluoroacetate], which IC50 (LSD1) is on record?
Answer: 0.44 µM

Question: For CC(C)(C)c1ccc(C(=O)N[C@@H](CCCCNC2CC2c2ccccc2)C(=O)NCc2ccccc2)cc1 (stereo partly drawn) [Example 5, 2-[N-(4-tert-Butylbenzenecarbonyl)]amino-6-(trans-2-phenylcyclopropan-1-amino)-N-benzylhexanamide Hydrochloride], which IC50 (LSD1) is on record?
Answer: 0.79 µM

Question: And the GI50 (HeLa cells)?
Answer: 12 µM

Question: And the GI50 (SH-SY5Y cells)?
Answer: 4.8 µM

Question: Which IC50 (LSD1) does the source give for O=C(N[C@@H](CCCCNC1CC1c1ccccc1)C(=O)NCc1ccccc1)c1ccc(Cl)cc1 (stereo partly drawn) [Example 6, 2-[N-(4-Chlorobenzenecarbonyl)]amino-6-(trans-2-phenylcyclopropan-1-amino)-N-benzylhexanamide Hydrochloride] here?
Answer: 0.2 µM

Question: And the GI50 (HeLa cells)?
Answer: 13 µM

Question: What about the GI50 (SH-SY5Y cells) of the same compound?
Answer: 11 µM

Question: Which IC50 (LSD1) does the source give for O=C(N[C@@H](CCCCNC1CC1c1ccccc1)C(=O)NCc1ccccc1)c1ccc(F)cc1 (stereo partly drawn) [Example 7, 2-[N-(4-Fluorobenzenecarbonyl)]amino-6-(trans-2-phenylcyclopropan-1-amino)-N-benzylhexanamide Hydrochloride] here?
Answer: 0.25 µM

Question: Which IC50 (LSD1) does the source give for O=C(N[C@@H](CCCCNC1CC1c1ccccc1)C(=O)NCc1ccccc1)c1ccc(C(F)(F)F)cc1 (stereo partly drawn) [Example 9, 2-[N-(4-Trifluoromethylbenzenecarbonyl)]amino-6-(trans-2-phenylcyclopropan-1-amino)-N-benzylhexanamide Hydrochloride] here?
Answer: 0.38 µM

Question: And the GI50 (HeLa cells)?
Answer: 13 µM

Question: What about the GI50 (SH-SY5Y cells) of the same compound?
Answer: 5.4 µM

Question: With NCCNC(=O)c1cccc(C(=O)N[C@@H](CCCCNC2CC2c2ccccc2)C(=O)NCc2ccccc2)c1 (stereo partly drawn) [Example 10, 2-{3-[(2-Amino)ethylcarbamoyl]benzenecarbonylamino)-6-(trans-2-phenylcyclopropan-1-amino)-N-benzylhexanamide Ditrifluoroacetate] as the compound, how does the IC50 (LSD1) read?
Answer: 0.1 µM

Question: Which IC50 (LSD1) does the source give for O=C(N[C@@H](CCCCNC1CC1c1ccccc1)C(=O)NCc1ccccc1)c1cccc(C(=O)N2CCNCC2)c1 (stereo partly drawn) [Example 11, 2-[3-(Piperazine-1-carbonyl)benzenecarbonylamino}-6-(trans-2-phenylcyclopropan-1-amino)-N-benzylhexanamide Ditrifluoroacetate] here?
Answer: 0.25 µM

Question: With Cc1ccc(CNC(=O)[C@H](CCCCNC2CC2c2ccccc2)NC(=O)c2ccc(-c3ccccc3)cc2)cc1 (stereo partly drawn) [Example 12, 2-[N-(4-Phenylbenzenecarbonyl)]amino-6-(trans-2-phenylcyclopropan-1-amino)-N-(4-methylbenzyl)hexanamide Hydrochloride] as the compound, how does the IC50 (LSD1) read?
Answer: 0.6 µM

Question: What about the GI50 (HeLa cells) of the same compound?
Answer: 4.4 µM

Question: And the GI50 (SH-SY5Y cells)?
Answer: 3.5 µM

Question: Which results are given for O=C(N[C@@H](CCCCNC1CC1c1ccccc1)C(=O)NCc1ccc(F)cc1)c1ccc(-c2ccccc2)cc1 (stereo partly drawn) [Example 13, 2-[N-(4-Phenylbenzenecarbonyl)]amino-6-(trans-2-phenylcyclopropan-1-amino)-N-(4-fluorobenzyl)hexanamide Hydrochloride]?
Answer: IC50 (LSD1): 0.75 µM; GI50 (HeLa cells): 4.4 µM; GI50 (SH-SY5Y cells): 3.9 µM

Question: What does the source list for O=C(N[C@@H](CCCCNC1CC1c1ccccc1)C(=O)NCc1ccc(-c2ccccc2)cc1)c1ccc(-c2ccccc2)cc1 (stereo partly drawn) [Example 14, 2-[N-(4-Phenylbenzenecarbonyl)]amino-6-(trans-2-phenylcyclopropan-1-amino)-N-(4-phenylbenzyl)hexanamide Hydrochloride]?
Answer: IC50 (LSD1): 2.7 µM; GI50 (HeLa cells): 5.2 µM; GI50 (SH-SY5Y cells): 6.4 µM

Question: With CC(C)(C)c1ccc(CNC(=O)[C@H](CCCCNC2CC2c2ccccc2)NC(=O)c2ccc(-c3ccccc3)cc2)cc1 (stereo partly drawn) [Example 15, 2-[N-(4-Phenylbenzenecarbonyl)]amino-6-(trans-2-phenylcyclopropan-1-amino)-N-(4-tert-butylbenzyl)hexanamide Trifluoroacetate] as the compound, how does the IC50 (LSD1) read?
Answer: 1.2 µM

Question: What about the GI50 (HeLa cells) of the same compound?
Answer: 4 µM

Question: What about the GI50 (SH-SY5Y cells) of the same compound?
Answer: 2.7 µM

Question: Which IC50 (LSD1) does the source give for Cc1cccc(CNC(=O)[C@H](CCCCNC2CC2c2ccccc2)NC(=O)c2ccc(-c3ccccc3)cc2)c1 (stereo partly drawn) [Example 16, 2-[N-(4-Phenylbenzenecarbonyl)]amino-6-(trans-2-phenylcyclopropan-1-amino)-N-(3-methylbenzyl)hexanamide Hydrochloride] here?
Answer: 0.68 µM

Question: What about the GI50 (HeLa cells) of the same compound?
Answer: 4.2 µM

Question: What about the GI50 (SH-SY5Y cells) of the same compound?
Answer: 2.3 µM

Question: What does the source list for O=C(N[C@@H](CCCCNC1CC1c1ccccc1)C(=O)NCc1cccc(F)c1)c1ccc(-c2ccccc2)cc1 (stereo partly drawn) [Example 17, 2-[N-(4-Phenylbenzenecarbonyl)]amino-6-(trans-2-phenylcyclopropan-1-amino)-N-(3-fluorobenzyl)hexanamide Hydrochloride]?
Answer: IC50 (LSD1): 0.67 µM; GI50 (HeLa cells): 10.9 µM; GI50 (SH-SY5Y cells): 4.1 µM

Question: Which results are given for O=C(N[C@@H](CCCCNC1CC1c1ccccc1)C(=O)NCc1cccc(-c2ccccc2)c1)c1ccc(-c2ccccc2)cc1 (stereo partly drawn) [Example 18, 2-[N-(4-Phenylbenzenecarbonyl)]amino-6-(trans-2-phenylcyclopropan-1-amino)-N-(3-phenylbenzyl)hexanamide Hydrochloride]?
Answer: IC50 (LSD1): 0.98 µM; GI50 (HeLa cells): 9.7 µM; GI50 (SH-SY5Y cells): 3.8 µM
